Consider two molecules from ChEMBL document CHEMBL3351663, “Discovery of acylurea isosteres of 2-acylaminothiadiazole in the azaxanthene series of glucocorticoid receptor agonists” (Bioorg Med Chem Lett, 2014).

Structures are written as SMILES. pEC50, pIC50, pKi: −log10 of the molar value.

The nature of series [1]: Half life in human liver microsomes. Background: Liver microsomes are vesicles of endoplasmic reticulum, rich in cytochrome P450 enzymes.
For series [2], the target named is T1, Glucocorticoid receptor (Homo sapiens, UniProt P04150).
T1 sequence (P04150 whole entry): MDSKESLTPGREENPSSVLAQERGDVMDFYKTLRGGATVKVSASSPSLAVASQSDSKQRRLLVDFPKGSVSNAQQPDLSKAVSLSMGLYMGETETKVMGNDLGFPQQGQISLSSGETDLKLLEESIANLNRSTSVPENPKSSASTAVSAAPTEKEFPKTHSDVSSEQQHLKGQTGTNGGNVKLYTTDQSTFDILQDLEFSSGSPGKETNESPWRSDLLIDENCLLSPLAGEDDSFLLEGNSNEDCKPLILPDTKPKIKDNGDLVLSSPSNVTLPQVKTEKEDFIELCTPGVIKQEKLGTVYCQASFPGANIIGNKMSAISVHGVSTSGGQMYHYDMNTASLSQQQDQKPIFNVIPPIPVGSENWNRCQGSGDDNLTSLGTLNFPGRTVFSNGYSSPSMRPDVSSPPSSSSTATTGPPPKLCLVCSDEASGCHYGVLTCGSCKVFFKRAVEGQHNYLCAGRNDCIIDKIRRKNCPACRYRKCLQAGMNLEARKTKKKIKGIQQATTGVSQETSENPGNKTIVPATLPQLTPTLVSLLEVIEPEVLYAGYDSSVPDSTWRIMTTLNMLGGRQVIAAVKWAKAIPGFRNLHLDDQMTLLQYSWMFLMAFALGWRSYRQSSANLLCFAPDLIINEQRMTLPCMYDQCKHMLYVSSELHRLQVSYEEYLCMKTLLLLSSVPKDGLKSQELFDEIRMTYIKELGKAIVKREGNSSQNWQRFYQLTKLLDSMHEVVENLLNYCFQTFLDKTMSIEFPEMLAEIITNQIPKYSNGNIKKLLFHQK
On the set-up: species or system Blood.

In series [3] the target is T1, Glucocorticoid receptor. Kind of series: Agonist activity at glucocorticoid receptor in human HeLa cells assessed as NP-1 transactivation by luciferase reporter gene assay. Type of series: cell-based. Background: Reporter assays use an easily measured gene product as a stand-in for the process of interest.
In series [4] the target is T1, Glucocorticoid receptor. Kind of series: Binding affinity to glucocorticoid receptor (unknown origin) by fluorescence polarization assay. In general terms: Polarisation of emitted light reports the rotation of a fluorescent probe.
Another series addresses Cytochrome P450 2C19 (Homo sapiens, UniProt P33261). Put plainly: Inhibition of CYP2C19 (unknown origin). Format: ADME.
Another series has as its target T2, Progesterone receptor (Homo sapiens, UniProt P06401).
T2 sequence (P06401 whole entry): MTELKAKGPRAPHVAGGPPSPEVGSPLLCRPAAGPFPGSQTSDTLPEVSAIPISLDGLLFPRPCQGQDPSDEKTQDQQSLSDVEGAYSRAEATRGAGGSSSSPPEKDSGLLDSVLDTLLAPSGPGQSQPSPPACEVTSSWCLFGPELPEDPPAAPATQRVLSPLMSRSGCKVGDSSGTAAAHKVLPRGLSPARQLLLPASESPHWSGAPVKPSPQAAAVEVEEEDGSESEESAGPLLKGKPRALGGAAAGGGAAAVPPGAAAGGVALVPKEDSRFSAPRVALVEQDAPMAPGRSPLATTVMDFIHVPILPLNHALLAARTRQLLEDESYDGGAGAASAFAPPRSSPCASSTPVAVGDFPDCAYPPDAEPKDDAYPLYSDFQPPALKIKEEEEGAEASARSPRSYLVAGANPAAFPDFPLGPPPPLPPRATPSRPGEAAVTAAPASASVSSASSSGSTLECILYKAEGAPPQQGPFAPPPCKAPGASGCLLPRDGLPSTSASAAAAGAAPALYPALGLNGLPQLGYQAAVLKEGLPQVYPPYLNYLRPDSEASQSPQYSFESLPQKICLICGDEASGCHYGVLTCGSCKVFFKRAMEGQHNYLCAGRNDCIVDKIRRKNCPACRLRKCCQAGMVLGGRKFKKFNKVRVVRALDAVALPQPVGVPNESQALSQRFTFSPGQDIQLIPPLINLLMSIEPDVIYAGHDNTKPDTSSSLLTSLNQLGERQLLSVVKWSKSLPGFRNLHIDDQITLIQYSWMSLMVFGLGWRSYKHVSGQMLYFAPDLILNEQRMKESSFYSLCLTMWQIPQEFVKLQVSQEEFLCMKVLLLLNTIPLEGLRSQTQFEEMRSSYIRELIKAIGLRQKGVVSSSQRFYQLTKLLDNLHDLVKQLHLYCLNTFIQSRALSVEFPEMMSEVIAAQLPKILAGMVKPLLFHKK
Put plainly: Binding affinity to progesterone receptor (unknown origin) by fluorescence polarization assay.

In the next series the target is T3, Estrogen receptor (Homo sapiens, UniProt P03372).
T3 sequence (P03372 whole entry): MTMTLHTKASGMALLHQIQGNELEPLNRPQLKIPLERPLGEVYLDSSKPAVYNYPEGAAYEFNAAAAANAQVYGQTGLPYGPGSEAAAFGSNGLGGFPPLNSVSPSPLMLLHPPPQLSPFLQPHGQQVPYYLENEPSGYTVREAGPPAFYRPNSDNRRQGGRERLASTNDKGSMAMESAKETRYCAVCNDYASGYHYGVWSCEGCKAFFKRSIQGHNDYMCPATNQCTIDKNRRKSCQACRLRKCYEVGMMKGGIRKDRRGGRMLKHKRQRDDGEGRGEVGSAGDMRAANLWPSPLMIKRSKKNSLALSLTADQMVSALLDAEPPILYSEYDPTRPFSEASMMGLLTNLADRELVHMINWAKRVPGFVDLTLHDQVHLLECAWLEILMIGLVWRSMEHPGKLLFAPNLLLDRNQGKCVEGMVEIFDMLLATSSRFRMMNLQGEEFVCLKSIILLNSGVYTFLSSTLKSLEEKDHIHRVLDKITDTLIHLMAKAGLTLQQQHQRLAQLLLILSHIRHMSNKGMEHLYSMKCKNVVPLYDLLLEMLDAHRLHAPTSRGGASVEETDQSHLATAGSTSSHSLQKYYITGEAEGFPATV
Put plainly: Binding affinity to estrogen receptor-alpha (unknown origin).

Series [5] addresses T1, Glucocorticoid receptor. Put plainly: Agonist activity at glucocorticoid receptor in human A549 cells assessed as AP-1 transrepression by luciferase reporter gene assay. Format: cell-based.
The next series deals with Cytochrome P450 3A4 (Homo sapiens, UniProt P08684). Put plainly: Inhibition of CYP3A4 (unknown origin). Type of series: ADME.
In another series the target is Cytochrome P450 2C9 (Homo sapiens, UniProt P11712). Kind of series: Inhibition of CYP2C9 (unknown origin). Type of series: ADME.
Sequence of Cytochrome P450 2C9 (P11712 whole entry): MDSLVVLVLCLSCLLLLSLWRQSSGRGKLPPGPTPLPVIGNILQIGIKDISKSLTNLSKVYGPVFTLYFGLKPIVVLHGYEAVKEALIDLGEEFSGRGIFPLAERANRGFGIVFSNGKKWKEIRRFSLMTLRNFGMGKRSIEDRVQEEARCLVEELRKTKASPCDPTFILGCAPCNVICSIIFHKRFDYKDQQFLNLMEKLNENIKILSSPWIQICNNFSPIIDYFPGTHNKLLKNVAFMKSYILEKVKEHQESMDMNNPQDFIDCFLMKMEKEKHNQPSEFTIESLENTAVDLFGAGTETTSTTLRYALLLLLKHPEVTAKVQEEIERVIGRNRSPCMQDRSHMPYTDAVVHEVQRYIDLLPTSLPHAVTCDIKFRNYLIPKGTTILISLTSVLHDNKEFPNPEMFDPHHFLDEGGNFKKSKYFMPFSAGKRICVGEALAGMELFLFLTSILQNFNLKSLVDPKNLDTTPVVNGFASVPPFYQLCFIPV

Sequence of Cytochrome P450 3A4 (P08684 whole entry): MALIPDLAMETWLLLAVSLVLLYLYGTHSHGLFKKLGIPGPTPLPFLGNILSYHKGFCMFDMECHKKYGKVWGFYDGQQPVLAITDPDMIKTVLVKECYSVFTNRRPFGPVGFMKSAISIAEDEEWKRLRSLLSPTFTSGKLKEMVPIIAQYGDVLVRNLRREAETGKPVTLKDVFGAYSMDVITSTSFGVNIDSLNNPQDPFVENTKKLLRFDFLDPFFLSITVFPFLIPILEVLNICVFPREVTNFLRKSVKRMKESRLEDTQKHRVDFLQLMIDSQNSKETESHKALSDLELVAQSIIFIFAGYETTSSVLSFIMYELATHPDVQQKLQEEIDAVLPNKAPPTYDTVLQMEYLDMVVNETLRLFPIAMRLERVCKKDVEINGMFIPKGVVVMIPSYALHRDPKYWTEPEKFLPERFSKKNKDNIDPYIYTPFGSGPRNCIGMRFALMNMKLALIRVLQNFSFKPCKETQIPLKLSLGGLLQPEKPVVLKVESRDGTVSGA
Sequence of Cytochrome P450 2C19 (P33261 whole entry): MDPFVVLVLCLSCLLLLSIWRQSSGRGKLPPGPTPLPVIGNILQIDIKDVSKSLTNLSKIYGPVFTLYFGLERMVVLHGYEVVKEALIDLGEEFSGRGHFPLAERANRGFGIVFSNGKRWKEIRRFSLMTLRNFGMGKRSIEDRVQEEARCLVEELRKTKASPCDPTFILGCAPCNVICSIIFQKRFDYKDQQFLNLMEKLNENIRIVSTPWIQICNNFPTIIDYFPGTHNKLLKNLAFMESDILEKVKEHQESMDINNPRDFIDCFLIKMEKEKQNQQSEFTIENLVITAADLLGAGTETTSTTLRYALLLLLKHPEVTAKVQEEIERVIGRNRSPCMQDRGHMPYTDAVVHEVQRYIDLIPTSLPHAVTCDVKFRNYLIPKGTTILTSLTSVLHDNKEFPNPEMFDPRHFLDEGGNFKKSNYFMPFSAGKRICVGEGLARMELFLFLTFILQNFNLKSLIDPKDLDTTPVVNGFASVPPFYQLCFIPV

As usually defined, the half-life is the time in which the quantity being followed falls by half. Usually pEC50 stands for the negative decadic logarithm of the EC50, by convention in mol/L. As a reminder, the pKi is the negative decadic logarithm of the Ki, by convention in mol/L. High values mean a low Ki, low ones a high Ki. The pIC50 is the IC50 on a negative log10 scale, so that one unit is a factor of ten. A low value points to a high IC50. Turning to `CC(C)(C(=O)Nc1nncs1)[C@@H]1c2ccc(-c3ccc(C(=O)N4CCOCC4)cc3)nc2Oc2c(F)cccc21`, the half-life in series [1] (liver microsomes) was 9.1 min. The pEC50 on Glucocorticoid receptor [2] was 7.67; at Glucocorticoid receptor [3], 7.97; at Glucocorticoid receptor [5], 8.68. In addition, the pKi on Glucocorticoid receptor [4] was 8.80; on Progesterone receptor it was 7.35; on Estrogen receptor, below 4.12. Besides, the pIC50 is 5.89 against Cytochrome P450 2C19, 6.52 against Cytochrome P450 3A4 and 6.00 at Cytochrome P450 2C9.

Take `CC(C)(C(=O)NC(N)=O)[C@@H]1c2ccc(-c3ccc(C(=O)N4CCOCC4)cc3)nc2Oc2c(F)cccc21`: in series [1] (microsomes), the half-life was found to be 41 min. Further, the pEC50 on Glucocorticoid receptor [2] is 7.69; at Glucocorticoid receptor [3], 8.26; on Glucocorticoid receptor [5] it was 8.68. The pKi on Glucocorticoid receptor [4] was 8.68; at Progesterone receptor it was 7.28; on Estrogen receptor, below 4.12. Further, the pIC50 against Cytochrome P450 2C19 is 4.96; at Cytochrome P450 3A4, below 4.40; at Cytochrome P450 2C9, 4.85.
